The first assay relates to brain. As to the kind of experiment: Matured TTM-001 and TTM-002 variants, NGS enrichment in mouse brain. Type of assay: in vivo, mice. As to conditions: NGS fold-enrichment, mouse brain, relative to AAV9 control.
KTINGHDSPHKSRQSQHT: the “Fold Enrichment relative to AAV9, Brain (Mouse)” value turned out to be 8.324 fold.
In the case of KTNNGHDSPHKSVQNQHT, the “Fold Enrichment relative to AAV9, Brain (Mouse)” value came out at 7.934 fold.
On the same count and under the same terms, with KSINGYDSPHKSGQTQQT the figure was 4.497 fold.

The assay is the same for the next values; noted with them: mouse brain; relative to AAV9 control.
Consider KTINGSGSPHSKAQRDIT, for which the “Fold Enrichment relative to AAV9, Brain (Mouse)” value came to 88.122 fold.
Same read-out and setting: with KTINGSGSPHSKAQYSVT the figure was 60.023 fold; with KTIDGSGSPHSKSQNHQT, 63.174 fold; with KTINGSGSPHSKAPSMQT, 75.504 fold.
Regarding KTINGSGSPHSKAQIGMT, the “Fold Enrichment relative to AAV9, Brain (Mouse)” value was 134.585 fold.

For the next assay, the system named is brains, heart, liver, muscle, and DRG of the NHPs. Kind of assay: Maturation of TTM-001 and TTM-002 capsids, NGS enrichment in NHP tissues. Type of assay: in vivo. As to conditions: NGS fold-enrichment of RNA, NHP brain, relative to AAV9 control. An outline of the steps:
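Variants carry mutations within and flanking the loop IV peptide insert: positions 450–466 were triplet-randomized, while positions 449–466 received low-frequency point mutations. The combined pool went into two NHPs, and each peptide was scored by NGS enrichment ratio against AAV9.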
In the case of KTINGHDSPHKSRQSQHT, the “Fold Enrichment relative to AAV9, Brain (NHP)” value amounted to 88.544 fold.
On to KTNNGHDSPHKSVQNQHT, for which the “Fold Enrichment relative to AAV9, Brain (NHP)” value was 115.172 fold.
The same measure, in the same setting: the value for KSINGYDSPHKSGQTQQT was 79.227 fold.

The assay is the same for the next values; noted with them: NGS fold-enrichment of matured AAV capsid variants; NHP brain, RNA; relative to AAV9 control.
Consider KTINGSGSPHSKAQRDIT, for which the “Fold Enrichment relative to AAV9, Brain (NHP)” value was 52.415 fold.
Take KTINGSGSPHSKAQYSVT: the “Fold Enrichment relative to AAV9, Brain (NHP)” value is listed as 57.130 fold.
Regarding KTIDGSGSPHSKSQNHQT, the “Fold Enrichment relative to AAV9, Brain (NHP)” value stood at 51.307 fold.
Regarding KTINGSGSPHSKAPSMQT, the “Fold Enrichment relative to AAV9, Brain (NHP)” value is listed as 50.249 fold.
Same read-out and setting: with KTINGSGSPHSKAQIGMT the figure was 59.013 fold.

The same assay, now with this note: NGS fold-enrichment, NHP DRG, relative to AAV9 control.
Take KTINGHDSPHKSRQSQHT: the “Fold Enrichment relative to AAV9, DRG (NHP)” value was 0.499 fold.
As to KTNNGHDSPHKSVQNQHT, the “Fold Enrichment relative to AAV9, DRG (NHP)” value was 0.000 fold.
On to KSINGYDSPHKSGQTQQT, for which the “Fold Enrichment relative to AAV9, DRG (NHP)” value was 1.817 fold.

Staying with this assay, now noted: NGS fold-enrichment, NHP heart, relative to AAV9 control.
For KTINGHDSPHKSRQSQHT, the “Fold Enrichment relative to AAV9, Heart (NHP)” value amounted to 0.046 fold.
Still for that read-out and setting: the value for KTNNGHDSPHKSVQNQHT was 0.083 fold; that for KSINGYDSPHKSGQTQQT was 0.226 fold.

Still in this assay, the particulars now being: NGS fold-enrichment, NHP liver DNA, relative to AAV9 control.
Regarding KTINGHDSPHKSRQSQHT, the “Fold Enrichment relative to AAV9, Liver DNA (NHP)” value is recorded as 0.032 fold.
On the same count and under the same terms, with KTNNGHDSPHKSVQNQHT the figure was 0.062 fold; with KSINGYDSPHKSGQTQQT, 1.148 fold.

The same assay, now with this note: NGS fold-enrichment, NHP liver RNA, relative to AAV9 control.
Turning to KTINGHDSPHKSRQSQHT, the “Fold Enrichment relative to AAV9, Liver RNA (NHP)” value is listed as 0.059 fold.
The same measure, in the same setting: the value for KTNNGHDSPHKSVQNQHT was 0.000 fold; that for KSINGYDSPHKSGQTQQT was 0.000 fold.

The assay is the same for the next values; noted with them: NGS fold-enrichment, NHP muscle, relative to AAV9 control.
For KTINGHDSPHKSRQSQHT, the “Fold Enrichment relative to AAV9, Muscle (NHP)” value was 0.000 fold.
Turning to KTNNGHDSPHKSVQNQHT, the “Fold Enrichment relative to AAV9, Muscle (NHP)” value was found to be 0.000 fold.
For the sequence KSINGYDSPHKSGQTQQT, the “Fold Enrichment relative to AAV9, Muscle (NHP)” value worked out at 0.000 fold.

The same assay, now with this note: NHP DRG; relative to AAV9 control.
As to KTINGSGSPHSKAQRDIT, the “Fold Enrichment relative to AAV9, DRG (NHP)” value was 0.098 fold.
The same measure, in the same setting: the value for KTINGSGSPHSKAQYSVT was 0.000 fold; that for KTIDGSGSPHSKSQNHQT was 0.000 fold.
The same measure, in the same setting: with KTINGSGSPHSKAPSMQT the figure was 0.000 fold; with KTINGSGSPHSKAQIGMT, 0.081 fold.

Still in this assay, the particulars now being: NHP heart; relative to AAV9 control.
In the case of KTINGSGSPHSKAQRDIT, the “Fold Enrichment relative to AAV9, Heart (NHP)” value is 0.000 fold.
For the sequence KTINGSGSPHSKAQYSVT, the “Fold Enrichment relative to AAV9, Heart (NHP)” value was 0.093 fold.
Same read-out and setting: the value for KTIDGSGSPHSKSQNHQT was 0.000 fold.
For KTINGSGSPHSKAPSMQT, the “Fold Enrichment relative to AAV9, Heart (NHP)” value came out at 0.000 fold.
Take KTINGSGSPHSKAQIGMT: the “Fold Enrichment relative to AAV9, Heart (NHP)” value is listed as 106.528 fold.

The same assay, now with this note: NHP liver, DNA; relative to AAV9 control.
For KTINGSGSPHSKAQRDIT, the “Fold Enrichment relative to AAV9, Liver DNA (NHP)” value was 0.605 fold.
Take KTINGSGSPHSKAQYSVT: the “Fold Enrichment relative to AAV9, Liver DNA (NHP)” value is reported as 0.302 fold.
Turning to KTIDGSGSPHSKSQNHQT, the “Fold Enrichment relative to AAV9, Liver DNA (NHP)” value was 0.269 fold.
The same measure, in the same setting: with KTINGSGSPHSKAPSMQT the figure was 0.460 fold; with KTINGSGSPHSKAQIGMT, 0.248 fold.

Still in this assay, the particulars now being: NHP liver, RNA; relative to AAV9 control.
Consider KTINGSGSPHSKAQRDIT, for which the “Fold Enrichment relative to AAV9, Liver RNA (NHP)” value was 1.784 fold.
On to KTINGSGSPHSKAQYSVT, for which the “Fold Enrichment relative to AAV9, Liver RNA (NHP)” value was determined as 1.235 fold.
KTIDGSGSPHSKSQNHQT: the “Fold Enrichment relative to AAV9, Liver RNA (NHP)” value is 0.000 fold.
The same measure, in the same setting: with KTINGSGSPHSKAPSMQT the figure was 0.941 fold.
Same read-out and setting: with KTINGSGSPHSKAQIGMT the figure was 1.003 fold.

Staying with this assay, now noted: NHP muscle; relative to AAV9 control.
With KTINGSGSPHSKAQRDIT, the “Fold Enrichment relative to AAV9, Muscle (NHP)” value was 0.008 fold.
Still for that read-out and setting: with KTINGSGSPHSKAQYSVT the figure was 0.000 fold.
Same read-out and setting: with KTIDGSGSPHSKSQNHQT the figure was 0.000 fold.
Still for that read-out and setting: the value for KTINGSGSPHSKAPSMQT was 0.004 fold; that for KTINGSGSPHSKAQIGMT was 0.000 fold.

The record behind these values is patent publication US20260250318A1, “COMPOSITIONS AND METHODS FOR CROSSING THE BLOOD BRAIN BARRIER” (VOYAGER THERAPEUTICS, INC., priority 2022, published 2026).
